{"source": "patent US20200298233A1", "about": "“MICROFLUIDIC PAPER CHIP FOR DETECTING MICRO-ORGANISM, METHOD FOR PREPARING THE SAME AND METHOD FOR DETECTING MICRO-ORGANISM USING THE SAME” (BIOMAX CO., LTD., priority 2017, published 2020)", "key": {"Vibrio vulnificus [1]": {"tested_on": "Vibrio vulnificus", "experiment": "Coloring reaction test of chromogenic reagents, 96 well plate", "assay_type": "biochemical", "conditions": "chromogenic reagent terminal concentration 10 mM, 30 minutes at 37° C."}, "Staphylococcus aureus [2]": {"tested_on": "Staphylococcus aureus", "experiment": "Coloring reaction test of chromogenic reagents, 96 well plate", "assay_type": "biochemical", "conditions": "chromogenic reagent terminal concentration 10 mM, 30 minutes at 37° C."}, "Escherichia coli O157": {"tested_on": "Escherichia coli O157", "conditions": "chromogenic reagent terminal concentration 10 mM, 30 minutes at 37° C."}, "Esherichia coli O157": {"tested_on": "Esherichia coli O157", "experiment": "Bacterial lysis efficacy by measuring optical density (OD)", "assay_type": "cell-based, Escherichia coli O157"}, "Listeria monocytogenes [3]": {"tested_on": "Listeria monocytogenes", "experiment": "Bacterial lysis efficacy by measuring optical density (OD)", "assay_type": "cell-based"}, "Staphylococcus aureus [4]": {"tested_on": "Staphylococcus aureus", "experiment": "Bacterial lysis efficacy by measuring optical density (OD)", "assay_type": "cell-based"}, "[5]": {"tested_on": "5 food risk microorganisms", "experiment": "Bacterial lysis efficacy by optical density, overall statements", "assay_type": "cell-based", "conditions": "detergents at 1%, tables 3 and 4"}, "Salmonella spp.": {"tested_on": "Salmonella spp.", "experiment": "Bacterial lysis efficacy by measuring optical density (OD)"}, "Vibrio vulnificus [6]": {"tested_on": "Vibrio vulnificus", "experiment": "Bacterial lysis efficacy by measuring optical density (OD)"}, "Escherichia coli": {"tested_on": "Escherichia coli", "conditions": "chromogenic reagent terminal concentration 10 mM, 30 minutes at 37° C."}, "Listeria monocytogenes [7]": {"tested_on": "Listeria monocytogenes", "experiment": "Coloring reaction test of chromogenic reagents, 96 well plate", "assay_type": "biochemical", "conditions": "chromogenic reagent terminal concentration 10 mM, 30 minutes at 37° C."}}, "note": "Several values for one entry are separate records, joined by “and”; a condition that tells them apart may be missing. Equal values may be shown once."}
{"compound": "5-Bromo-6-chloro-3-indoxyl-beta-D-galactopyranoside [Magenta-beta-galactopyranoside]", "values": [{"measurement": "coloring reaction", "setting": "Vibrio vulnificus [1]", "result": "unique coloring reaction"}, {"measurement": "coloring reaction", "setting": "Staphylococcus aureus [2]", "result": "unique coloring reaction"}, {"measurement": "coloring reaction", "setting": "Escherichia coli O157", "result": "unique coloring reaction"}]}
{"compound": "CCCCCCCCCCCCCC[N+](C)(C)CCCS(=O)(=O)[O-]", "note": "[SB3-14]", "values": [{"measurement": "Optical density", "setting": "Esherichia coli O157; Table 7, additives to 1% SB3-14, initial O.D = 1.0911", "result": "0.1112 and 0.1137 and 0.1126"}, {"measurement": "Optical density", "setting": "Esherichia coli O157; Table 8, C7BZO concentrations added to 1% SB3-14, initial O.D = 1.0829", "result": "0.1264 and 0.1254 and 0.1241"}, {"measurement": "Optical density", "setting": "Esherichia coli O157; detergent 0.1%, initial O.D = 0.8139", "result": "0.4641 and 0.4483 and 0.4351"}, {"measurement": "Optical density", "setting": "Esherichia coli O157; detergent 0.5%, initial O.D = 0.8139", "result": "0.2262 and 0.2254 and 0.2230"}, {"measurement": "Optical density", "setting": "Esherichia coli O157; detergent 1%, initial O.D = 0.8139", "result": "0.0270 and 0.0238 and 0.0244"}, {"measurement": "Optical density", "setting": "Esherichia coli O157; detergent 2%, initial O.D = 0.8139", "result": "0.4447 and 0.4452 and 0.4459"}, {"measurement": "Optical density", "setting": "Esherichia coli O157; detergent 3%, initial O.D = 0.8139", "result": "0.6228 and 0.6275 and 0.6225"}, {"measurement": "Optical density", "setting": "Esherichia coli O157; detergent 5%, initial O.D = 0.8139", "result": "0.6731 and 0.6746 and 0.6733"}, {"measurement": "Optical density", "setting": "Listeria monocytogenes [3]; Table 7, additives to 1% SB3-14, initial O.D = 1.2010", "result": "0.6579 and 0.6484 and 0.6514"}, {"measurement": "Optical density", "setting": "Listeria monocytogenes [3]; Table 8, C7BZO concentrations added to 1% SB3-14, initial O.D = 1.1086", "result": "0.7673 and 0.7609 and 0.7595"}, {"measurement": "Optical density", "setting": "Listeria monocytogenes [3]; detergent 0.1%, initial O.D = 0.8336", "result": "0.9540 and 0.9653 and 0.9757"}, {"measurement": "Optical density", "setting": "Listeria monocytogenes [3]; detergent 0.5%, initial O.D = 0.8336", "result": "0.8154 and 0.8244 and 0.8145"}, {"measurement": "Optical density", "setting": "Listeria monocytogenes [3]; detergent 1%, initial O.D = 0.8336", "result": "0.5993 and 0.5050 and 0.5950"}, {"measurement": "Optical density", "setting": "Listeria monocytogenes [3]; detergent 2%, initial O.D = 0.8336", "result": "0.9852 and 0.9975 and 0.9807"}, {"measurement": "Optical density", "setting": "Listeria monocytogenes [3]; detergent 3%, initial O.D = 0.8336", "result": "0.7006 and 0.6813 and 0.6884"}, {"measurement": "Optical density", "setting": "Listeria monocytogenes [3]; detergent 5%, initial O.D = 0.8336", "result": "0.7960 and 0.7828 and 0.7815"}, {"measurement": "Optical density", "setting": "Staphylococcus aureus [4]; Table 7, additives to 1% SB3-14, initial O.D = 1.2274", "result": "0.8154 and 0.8152 and 0.8153"}, {"measurement": "Optical density", "setting": "Staphylococcus aureus [4]; Table 8, C7BZO concentrations added to 1% SB3-14, initial O.D = 1.1374", "result": "0.8664 and 0.8654 and 0.8652"}, {"measurement": "Optical density", "setting": "Staphylococcus aureus [4]; detergent 0.1%, initial O.D = 1.1877", "result": "0.9052 and 0.9069 and 0.9087"}, {"measurement": "Optical density", "setting": "Staphylococcus aureus [4]; detergent 0.5%, initial O.D = 1.1877", "result": "1.1084 and 1.1070 and 1.1092"}, {"measurement": "Optical density", "setting": "Staphylococcus aureus [4]; detergent 1%, initial O.D = 1.1877", "result": "0.5341 and 0.5322"}, {"measurement": "Optical density", "setting": "Staphylococcus aureus [4]; detergent 2%, initial O.D = 1.1877", "result": "0.9473 and 0.9470 and 0.9461"}, {"measurement": "Optical density", "setting": "Staphylococcus aureus [4]; detergent 3%, initial O.D = 1.1877", "result": "1.0432 and 1.0429 and 1.0502"}, {"measurement": "Optical density", "setting": "Staphylococcus aureus [4]; detergent 5%, initial O.D = 1.1877", "result": "0.8999 and 0.8987 and 0.8865"}, {"measurement": "bacterial lysis efficacy", "setting": "[5]", "result": "best bacterial lysis efficacy"}, {"measurement": "Optical density", "setting": "Salmonella spp.; Table 7, additives to 1% SB3-14, initial O.D = 1.0894", "result": "0.3597 and 0.3519 and 0.3447"}, {"measurement": "Optical density", "setting": "Salmonella spp.; Table 8, C7BZO concentrations added to 1% SB3-14, initial O.D = 1.3421", "result": "0.3640 and 0.3631 and 0.3627"}, {"measurement": "Optical density", "setting": "Salmonella spp.; detergent 0.1%, initial O.D = 1.4448", "result": "0.5393 and 0.5423 and 0.5520"}, {"measurement": "Optical density", "setting": "Salmonella spp.; detergent 0.5%, initial O.D = 1.4448", "result": "0.5807 and 0.5788 and 0.5796"}, {"measurement": "Optical density", "setting": "Salmonella spp.; detergent 1%, initial O.D = 1.4448", "result": "0.4105 and 0.4095"}, {"measurement": "Optical density", "setting": "Salmonella spp.; detergent 2%, initial O.D = 1.4448", "result": "0.5727 and 0.5754 and 0.5776"}, {"measurement": "Optical density", "setting": "Salmonella spp.; detergent 3%, initial O.D = 1.4448", "result": "0.5196 and 0.5221"}, {"measurement": "Optical density", "setting": "Salmonella spp.; detergent 5%, initial O.D = 1.4448", "result": "0.4419 and 0.4454 and 0.4443"}, {"measurement": "Optical density", "setting": "Vibrio vulnificus [6]; Table 7, additives to 1% SB3-14, initial O.D = 0.5670", "result": "0.0800 and 0.0798 and 0.0787"}, {"measurement": "Optical density", "setting": "Vibrio vulnificus [6]; Table 8, C7BZO concentrations added to 1% SB3-14, initial O.D = 1.0272", "result": "0.2733 and 0.2706 and 0.2737"}, {"measurement": "Optical density", "setting": "Vibrio vulnificus [6]; detergent 0.1%, initial O.D = 0.6143, listed as SB-14", "result": "0.1924 and 0.1953 and 0.1984"}, {"measurement": "Optical density", "setting": "Vibrio vulnificus [6]; detergent 0.5%, initial O.D = 0.6143, listed as SB-14", "result": "0.0679 and 0.0739 and 0.0695"}, {"measurement": "Optical density", "setting": "Vibrio vulnificus [6]; detergent 1%, initial O.D = 0.6143, listed as SB-14", "result": "0.0601 and 0.0595 and 0.0588"}, {"measurement": "Optical density", "setting": "Vibrio vulnificus [6]; detergent 2%, initial O.D = 0.6143, listed as SB-14", "result": "0.0445 and 0.0393 and 0.0447"}, {"measurement": "Optical density", "setting": "Vibrio vulnificus [6]; detergent 3%, initial O.D = 0.6143, listed as SB-14", "result": "0.0453 and 0.0547 and 0.0528"}, {"measurement": "Optical density", "setting": "Vibrio vulnificus [6]; detergent 5%, initial O.D = 0.6143, listed as SB-14", "result": "0.0310 and 0.0329 and 0.0320"}]}
{"compound": "O.O.O.O=C([O-])[C@H]1O[C@@H](Oc2c[nH]c3ccc(Br)c(Cl)c23)[C@H](O)[C@@H](O)[C@@H]1O.[Na+]", "note": "[X-beta-glucuronide, 5-Bromo-4-chloro-3-indoxyl-beta-D-glucuronic acid Sodium salt trihydrate]", "values": [{"measurement": "coloring reaction", "setting": "Escherichia coli", "result": "unique coloring reaction"}]}
{"compound": "Aldol ® 518 myo-inositol-1-phosphate [Aldol-myo-inositol-1-phosphate]", "values": [{"measurement": "coloring reaction", "setting": "Listeria monocytogenes [7]", "result": "unique coloring reaction"}]}
